Source: patent publication US10702526B2, “Inhibitors of immune checkpoint modulators and related methods” (eFFECTOR Therapeutics, Inc., priority 2015, dated 2020)
Entries after “also recorded” stand apart in the source; their conditions may differ.

How the values were obtained:
[1] = tested on: PD-1 expression on Jurkat cells; experiment: PD-1 expression on PHA/PMA-activated Jurkat T cells (flow cytometry); format: cell-based, human
Procedure: (§1) To examine the effect of MNK-specific inhibitors on PD-1 expression, Jurkat cells (Clone E6.1, ATCC, transformed T cells) were used, which express PD-1 when activated through T cell receptor (TCR) signaling. Briefly, Jurkat cells were grown in 1×RPMI with 1× Pen/Strep, and 10% FBS, then about 3×10^6 Jurkat cells were activated in presence of 1 μg/mL PHA (Sigma) and 50 ng/mL PMA (Sigma). Test Cells were treated simultaneously with various concentrations of MNK-specific inhibitor Compound 107 (0, 0.01, 0.1, 1, 3 and 10 μM). After 48 hours, culture supernatants were harvested and examined via sandwich ELISA for the presence of IL-2 using human IL-2 ELISA DuoSet® (R&D Systems, Minneapolis, Minn.). The level of PD-1 on Jurkat cells was examined by incubating cells with fixable dead cell stain (1:20,000; BD Biosciences, San Jose, Calif.) for 15 minutes at 4° C., washed twice with flow staining buffer (1×PBS, 4% FBS and 1 mM EDTA), incubated with human FcR block, then contacted with allophycocyanin (APC) conjugated anti-PD-1 antibody (Biolegend, San Diego, Calif.) for 30 minutes at 4° C., washed two times with flow buffer, and finally cells were fixed with fixation buffer for 20 minutes at 4° C. After fixation, cells were washed twice with flow buffer and re-suspended in flow buffer and assessed for fluorescence using BD Accuri C6 flow cytometer. Data were analyzed using the C6 cytometer software (BD Biosciences, San Jose, Calif.).

[2] = tested on: IL-2 production in Jurkat T cells; experiment: IL-2 ELISA on supernatants of activated Jurkat T cells; format: cell-based, human; details: Jurkat T cells with PHA and PMA, 48 hours
Procedure: as §1, with “The level of PD-1 on Jurkat cells was examined by incubating cells with fixable dead cell stain (1:20,000; BD Biosciences, San Jose, Calif.) for 15 minutes at 4° C., washed twice with flow staining buffer (1×PBS, 4% FBS and 1 mM EDTA), incubated with human FcR block, then contacted with allophycocyanin (APC) conjugated anti-PD-1 antibody (Biolegend, San Diego, Calif.) for 30 minutes at 4° C., washed two times with flow buffer, and finally cells were fixed with fixation buffer for 20 minutes at 4° C.” left out

[3] = tested on: IL-10 production in primary T cells; experiment: IL-10 production by activated primary T cells; format: cell-based, human
[4] = tested on: CT26 (mouse colon carcinoma) tumor; experiment: CT26 colon carcinoma allograft tumor model in BALB/c mice; format: in vivo
Procedure: To evaluate the efficacy of a MNK-specific inhibitor in cancer, an in vivo allograft tumor model was used. Briefly, CT26 (mouse colon carcinoma) cells grown in DMEM supplemented with 10% FBS were harvested during exponential growth and counted for tumor inoculation in immune competent BALB/c mice. Each mouse was inoculated with 0.3×10^6 CT26 tumor cells in the right flank region in a 0.2 ml volume comprising a 1:1 ratio (volume to volume) of cells in growth media (0.1 ml) and Matrigel® matrix (0.1 ml) (BD Biosciences, San Jose Calif.). Tumors were allowed to grow to 100-200 mm^3 prior to study initiation. Before beginning treatment, all animals were weighed and tumor volumes measured using a caliper. Since the tumor volume can affect the effectiveness of any given treatment, mice were randomly assigned into vehicle and test article treatment groups after tumors had reached a similar size. Each study group contained 8 mice, with each group receiving one of the following treatments: (1) Compound 107 in 10% 1-methyl-2-pyrrolidinone and 90% propylene glycol and given at a dose of 1 mg/kg orally, once a day; (2) anti-PD1 (BioXcell, Lebanon, N.H.) in PBS and given at a dose of 0.5 mg/mouse intraperitoneally, once every four days (as described by Wei et al., PLoS One 8:e84927, 2013); (3) a combination of Compound 107 at 1 mg/kg orally, once a day and anti-PD1 at 0.5 mg/mouse intraperitoneally, once every four days; (4) vehicle only control.
During the study, tumor size (for subcutaneous implants) was measured in length and width with a caliper twice a week. The tumor volume was calculated by the formula L×W×W/2 according to NCI standards. Tumor growth inhibition (TGI %) is an indication of anti-tumor effectiveness, which is expressed as follows: TGI (%)=100×(1−(ΔT/ΔC)). ΔT and ΔC were the change in mean tumor volume of the treated and control groups, relative to mean tumor volume at the start of treatment. All experiments continued until group mean tumor volume reached about 2000 to 2,500 mm^3 in size. […] Also, the body weight for each mouse was collected at least once prior to the study start, and twice a week during the study. Body weight change is an indication of tolerability, so percent body weight change is calculated as follows: body weight change (%)=100×(body weightend−body weightstart)/body weightstart. Mice were also observed daily for mortality, mobility, hunched posture, piloerection, or other signs of distress while dosing. If a mouse lost greater than 20% body weight due to toxicity, or the combination of toxicity and tumor burden, it was euthanized. If there was apparent toxicity, the mice were taken off treatment and clinical observation and body weight measurement were done daily.

CT26 tumor = CT26 tumor re-challenge of previously treated mice; format: in vivo, mouse
Procedure: Previously treated allograft mice that responded to therapy or were tumor-free from each treatment group (8 days post-treatment) were tested for development of long-term immune memory by re-implanting new CT26 tumors and assessing for tumor growth compared to naïve BALB/c mice. Briefly, treated mice were re-implanted and naïve were implanted for the first time with tumor cells in the left flank region in 0.1 ml of growth media and an equal 0.1 ml volume ratio of Matrigel® matrix (1:1 volume to volume ratio), as before. Tumors in these untreated mice were measured following implantation as described herein.

[5] = 15 days after initiation of dosing
[6] = 22 days after initiation of dosing

In the case of `Cc1cc(Nc2cc(N)ncn2)c(=O)n2c1C(=O)NC21CCCCC1.Cl` [Compound 107], the “% PD-1 + Inhibition” value ([1]; Jurkat T cell assay, MNK-specific inhibitors) is reported as “+++ (+++ = 50-75%)”, the PD-1 expression ([1]; Jurkat cells with PHA and PMA, 0.01, 0.1, 1, 3 and 10 μM) is reported as “reduced in a dose dependent manner” and the “reduction in the expression of PD-1 as compared to control” value ([1]; PHA/PMA activated Jurkat T cells, highest concentration, 48 hours) is reported as no more than 50%. For the same molecule, the IL-2 production [2] was “did not alter cytokine production; also recorded: did not detectably alter IL-2 production”, the “% IL-10 Inhibition” value [3] was “++++ (++++ = 75-100%)” and the “expression/production of IL-10” value [3] was “inhibited”. The inhibition at 10 µM ([3]; Homo sapiens, T-cell, 10 μM, read-out: maximum inhibition of the production of IL-10) was 96%, the “Mean Tumor Volume (mm^3) ± SEM” value [4, 5] was 522.3 ± 174.4; mm^3 and the “Tumor Growth Inhibition (% TGI)” value [4, 5] was “about 34%”. The “Tumor Growth Inhibition (% TGI)” value ([4]; 15 days after initiation of dosing, listed as Cmpd 107) was 34%, the “Mean Tumor Volume (mm^3) ± SEM” value [4, 6] was 1260.8 ± 499.1 mm^3 and the “Tumor Growth Inhibition (% TGI)” value [4, 6] was “about 55%”. For the same molecule, the “Tumor Growth Inhibition (% TGI)” value ([4]; 22 days after initiation of dosing, listed as Cmpd 107) was 54%, the “Body Weight Change Average %” value ([4]; final day of study (day 22)) was 13.9% and the “Mean Tumor Volume (mm^3) ± SEM” value (CT26 tumor; 8 days after tumor implant) was 22.4 ± 4.5 mm^3. The “Tumor Formation” value (CT26 tumor; animals with measurable tumor / group, no further drug treatment) was 0/4.
